Assay results reported in US7557137B2, “Gamma-lactams as beta-secretase inhibitors” (Bristol-Myers Squibb Company, priority 2002, dated 2009).

Target: T1, BACE enzyme (Homo sapiens, UniProt P56817)
T1 construct: the catalytic domain, appended by a C-terminal poly-histidine tag, is secreted out into the cellular medium; made in house; host or cells: Drosophila melanogaster S2 cells
Experiment: BACE enzyme inhibition, fluorescence-quenched peptide substrate MCA-EVNLDAEFK(DNP)
Format: biochemical
Conditions: 50 mM acetate, pH 4.5, 0.25 mg/ml bovine serum albumin, 2.5% DMSO; read-out: Activity Rating (based on IC50 values)
Description: There are a number of methods by which inhibitors of the BACE enzyme can be identified experimentally. The enzyme can be obtained from membrane samples from natural tissues or cultured cells or can be expressed recombinantly in a host cell by well known methods of molecular biology. […] The enzymatic activity and/or ligand binding capability of the enzyme can be assessed within these membrane samples, or the enzyme can be purified to varying extents. As an illustrative example, the nucleic acid sequence encoding the pro and catalytic domains of human BACE can be appended on the 5′ end with an untranslated and signal sequence from the gene for acetylcholinesterase, and on the 3′ end with a sequence encoding a poly-histidine tag. This cDNA can then be expressed in Drosophila melanogaster S2 cells in which the signal and pro sequences of the transcribed/translated protein are removed by cellular proteases and the catalytic domain, appended by a C-terminal poly-histidine tag, is secreted out into the cellular medium. The enzyme can then be purified from the culture medium by nickel affinity chromatography by methods well known to those trained in the art [Mallender, W. et al., (2001) “Characterization of recombinant, soluble beta-secretase from an insect cell expression system.” Mol. Pharmacol. 59: 619-626]. Similar strategies for expressing and purifying various forms of BACE in bacterial, mammalian and other cell types would be known to one skilled in the art.
The enzyme thus obtained can be put in contact with a test compound and with an appropriate substrate on which enzyme-mediated peptide bond hydrolysis is known to occur. The ability of the test compound to diminish the rate of substrate hydrolysis can then be quantified as a measure of inhibition potency. Appropriate substrates can be prepared as peptides, proteins, or chemically modified versions of peptides or proteins, that contain an amino acid sequence that is recognized as a substrate by the enzyme. For example, the amino acid sequence immediately proximal to the beta-cleavage site within Swedish mutant APP is known to be recognized as a substrate for BACE. […] Longer peptide and protein substrates can also be designed by extending the amino acid composition on the N-terminal, the C-terminal, or both ends.
In one known application of (SEQ. ID. NO.:1), X is a 7-methoxycoumarin-4-acetyl (MCA) group and Y is a dinitrophenyl (DNP) group [Marcinkeviciene, J. et al., (2001) “Mechanism of inhibition of beta-site amyloid precursor protein-cleaving enzyme (BACE) by a statine-based peptide.” J. Biol. Chem. 276: 23790-23794]. When this peptide is intact, the natural fluorescence of the MCA group is quenched by its proximity to the DNP group. […] The increase in fluorescence intensity that accompanies enzyme-mediated peptide hydrolysis can be measured as a function of time to quantify the velocity of enzyme catalysis. In a typical assay system the BACE enzyme is diluted into a buffer system composed of 50 mM acetate, pH 4.5 containing 0.25 mg/ml bovine serum albumin. To this is added neat dimethyl sulfoxide (DMSO) or a stock solution of test compound dissolved in DMSO so that the final amount of DMSO in all assays is held constant at 2.5% (v:v). The enzymatic reaction is then initiated by addition of a stock solution of the substrate peptide to a known concentration. The fluorescence increase with time after substrate addition is monitored with an appropriate fluorescence detection instrument, such as a microplate reader or spectrofluorometer. The slope of the signal vs. time plot (progress curve) for samples to which only DMSO was added is taken as a measure of the uninhibited velocity and represents 100% enzymatic activity.

T1 sequence (P56817 75-416 limits assumed): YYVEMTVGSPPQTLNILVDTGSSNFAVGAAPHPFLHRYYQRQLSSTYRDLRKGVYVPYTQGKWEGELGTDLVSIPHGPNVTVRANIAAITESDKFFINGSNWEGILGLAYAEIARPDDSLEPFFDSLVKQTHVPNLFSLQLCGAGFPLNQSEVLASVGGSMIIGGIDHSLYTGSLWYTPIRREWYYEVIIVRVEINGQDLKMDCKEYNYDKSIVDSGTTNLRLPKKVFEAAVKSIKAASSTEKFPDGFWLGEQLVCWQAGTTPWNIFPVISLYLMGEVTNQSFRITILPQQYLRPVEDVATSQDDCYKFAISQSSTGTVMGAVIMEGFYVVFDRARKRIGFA

CC[C@H](C)[C@@]1(NC(C)=O)CCN([C@@H](CCc2ccccc2)C(=O)N[C@@H](Cc2cc(F)cc(F)c2)[C@H](O)CNCc2cccc(OC)c2)C1=O [Example 2, (2S)-2-(3(S)-Acetylamino-3-((S)-sec-butyl)-2-oxo-pyrrolidin-1-yl)-N-[(1S,2R)-1-(3,5-difluoro-benzyl)-2-hydroxy-3-(3-methoxy-benzylamino)-propyl]-4-phenyl-butyramide]
IC50: < 100 nM
